According to ChEMBL document CHEMBL1201862, “PubChem BioAssay data set” (2004):
Values joined by “and” are separate entries in the source; they are usually repeats but may differ in a detail not shown here. Equal entries are not always repeated. Active and inactive are the calls of the source.

Tests used:
[1] = target: Glycogen synthase kinase-3 alpha (Homo sapiens, UniProt P49840); assay: Inhibition of Human GSK-3 alpha Activity Measured in Biochemical System Using Microfluidics - 2063-06_Inhibitor_Dose_DryPowder_Activity. [Related pubchem assays (depositor defined):AID2709]
[2] = target: Glycogen synthase kinase-3 beta (Homo sapiens, UniProt P49841); assay: Inhibition of Human GSK-3 beta Activity Measured in Biochemical System Using Microfluidics - 2063-05_Inhibitor_Dose_DryPowder_Activity. [Related pubchem assays (depositor defined):AID2709]
[3] = target: Voltage-gated inwardly rectifying potassium channel KCNH2 (Homo sapiens, UniProt Q12809); conditions: Potency;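 note: confirmatory quantitative high-throughput screen measuring inhibition of hERG channel activity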
[4] = inhibitors of firefly luciferase expression or activity, dose response, H4 neuroglioma cells, luminescence (AID 1990); assay type: functional, cell-based
[5] = Luminescence Cell-Based Dose Response HTS to Identify Inhibitors of 5'UTR Stem-Loop Driven Prion Protein mRNA Translation in H4 Neuroglioblastoma Cells. [Related pubchem assays: 1827 (Project Summary), 1813 (Primary HTS)]; assay type: functional
[6] = target: T1, Heat shock factor protein 1 (Mus musculus, UniProt P38532); assay: inhibition of MG132-induced HSE-luciferase signal, confirmation, cell-based, NIH3T3, luminescence, dose retest (AID 2382); assay type: functional;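 note: NIH3T3 fibroblasts with HSF1-driven luciferase reporter stressed by proteasome inhibitor MG132; luminescence from HSF1-driven luciferase expression after 8 hours of MG132 stress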
T1 sequence (P38532 whole entry): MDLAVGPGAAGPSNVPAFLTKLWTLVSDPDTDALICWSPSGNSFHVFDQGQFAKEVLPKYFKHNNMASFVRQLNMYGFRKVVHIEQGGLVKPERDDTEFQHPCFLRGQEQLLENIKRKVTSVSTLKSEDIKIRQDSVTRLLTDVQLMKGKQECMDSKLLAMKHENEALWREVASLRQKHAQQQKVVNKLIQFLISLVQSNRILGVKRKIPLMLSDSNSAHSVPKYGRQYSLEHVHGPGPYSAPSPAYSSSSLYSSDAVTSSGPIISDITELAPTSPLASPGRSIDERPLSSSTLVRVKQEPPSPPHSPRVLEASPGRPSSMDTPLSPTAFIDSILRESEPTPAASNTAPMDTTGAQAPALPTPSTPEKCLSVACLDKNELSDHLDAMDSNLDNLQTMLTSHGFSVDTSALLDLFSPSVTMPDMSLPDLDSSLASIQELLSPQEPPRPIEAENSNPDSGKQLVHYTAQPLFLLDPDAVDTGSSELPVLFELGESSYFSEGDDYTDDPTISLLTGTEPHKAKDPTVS

[7] = inhibitors of SNCA 5'UTR-driven reporter translation, confirmation, H4 neuroglioma cells, luminescence (AID 1988); assay type: functional, cell-based
Jurkat = assay: antigen receptor-induced NF-kB inhibitors, dose response, Jurkat, luciferase reporter, luminescence, B- and T-cell (AID 489004); assay type: functional, cell-based; conditions: Homo sapiens;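 note: NF-kB luciferase reporter Jurkat cells stimulated with PMA plus ionomycin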
[8] = target: Cyclin-dependent kinase 5/CDK5 activator 1 (Homo sapiens, UniProt Q00535); assay: CDK5/p35 kinase inhibitors, dose response, biochemical, cherry-picked samples, set 2 (AID 504545)
[9] = cytotoxicity in HEK-293T NF-kB-Luc cells, dose response, cytotoxicity control for B/T-cell NF-kB inhibitor project, cell-based, uHTS hits (AID 489019); assay type: functional;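 note: IC50 reflects cytotoxicity as loss of cell viability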
[10] = target: Latent membrane protein 1 (Human herpesvirus 4 (strain B95-8), UniProt P03230); assay: TES1-eGFP NF-kB reporter inhibition versus Tet-On dsRED, dose response, selectivity assay for LMP1 NF-kB inhibitor project, imaging, HEK293T, dual-color eGFP/dsRED, cherry-picks (AID 588398); assay type: functional, cell-based
[11] = Shn3 3'UTR reporter inhibitors, dose response, cell-based, Clone20 osteoblasts, firefly luciferase, cherry-picked (AID 624132); assay type: functional;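 note: firefly luciferase luminescence from reporter carrying the Shn3 3'UTR in osteoblasts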
[12] = inhibitors of HIV Env-driven cell fusion, dose response, cherry-pick (AID 652057); assay type: functional, cell-based
[13] = CEM21 lymphoblast cell cytotoxicity, dose response, cytotoxicity control for viral fusion inhibitor project, CellTiter-Glo luminescence, cherry-picked (AID 652042); assay type: functional, cell-based;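 note: potency for signal decrease meaning cytotoxicity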
[14] = ZM109 Env clade C HIV-1 fusion inhibitors, dose response, HeLa effector, CEM target cells, luciferase, cherry-pick (AID 652058); assay type: functional, cell-based
Paired box protein Pax-8 = Paired box protein Pax-8 (Homo sapiens, UniProt Q06710); assay: inhibitors of PAX8-driven TPO luciferase reporter, dose response, RMG-I cells, cherry-pick (AID 687027); assay type: functional, cell-based;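 note: luciferase reporter driven by Pax8 target thyroperoxidase promoter measured by SteadyGlo luminescence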
[15] = off-target signal loss in HeLa-CEM21 co-culture – HeLa F-luc CTL cells, cherry-picked, counter-screen for HIV-1 Env fusion inhibitor project, dose response (AID 652040); assay type: functional, cell-based;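 note: potency for signal decrease marking cytotoxic or nonspecific inhibition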
[16] = inhibitors of clade B AD8 Env fusion, dose response, cell-based, cherry-pick (AID 652062); assay type: functional;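 note: luciferase signal from cell-cell fusion driven by HIV-1 clade B AD8 Env; potency is for inhibitors of fusion seen as a drop in luminescence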
[17] = reduction of endogenous Shn3 mRNA, dose response, qPCR, Clone20 cells, cherry-pick (AID 743415); assay type: functional, cell-based
[18] = reduction of Shn3 3'UTR firefly luciferase signal, dose response, Schnurri-3 inhibitor project, cell-based, Clone20 osteoblasts, cherry-pick, set 2 (AID 720490); assay type: functional;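 note: actives lower the luminescence signal as inhibitors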
[19] = target: Beta-2 adrenergic receptor (Homo sapiens, UniProt P07550); assay: beta2AR agonists driving receptor internalization, dose response, cell-based, FAP fluorogen, flow cytometry, cherry pick 1 (AID 588763); assay type: functional
[20] = target: Glucose-6-phosphate 1-dehydrogenase (Homo sapiens, UniProt P11413); assay: human G6PD enzyme inhibitors, dose response, selectivity assay for P. falciparum G6PD inhibitor project, biochemical, fluorescence (AID 504792); assay type: functional
Nonstructural protein 1 = Nonstructural protein 1 (Influenza A virus, UniProt Q194T2); assay type: functional, Influenza A virus (A/California/07/2009(H1N1))
[21] = target: T2, Microphthalmia-associated transcription factor (Homo sapiens, UniProt O75030); assay: TRPM1 promoter luciferase signal decrease, dose response, MITF inhibitor project, cell-based, SK-MEL-5, cherry-picked, set 3 (AID 493073); assay type: functional
T2 sequence (O75030 whole entry): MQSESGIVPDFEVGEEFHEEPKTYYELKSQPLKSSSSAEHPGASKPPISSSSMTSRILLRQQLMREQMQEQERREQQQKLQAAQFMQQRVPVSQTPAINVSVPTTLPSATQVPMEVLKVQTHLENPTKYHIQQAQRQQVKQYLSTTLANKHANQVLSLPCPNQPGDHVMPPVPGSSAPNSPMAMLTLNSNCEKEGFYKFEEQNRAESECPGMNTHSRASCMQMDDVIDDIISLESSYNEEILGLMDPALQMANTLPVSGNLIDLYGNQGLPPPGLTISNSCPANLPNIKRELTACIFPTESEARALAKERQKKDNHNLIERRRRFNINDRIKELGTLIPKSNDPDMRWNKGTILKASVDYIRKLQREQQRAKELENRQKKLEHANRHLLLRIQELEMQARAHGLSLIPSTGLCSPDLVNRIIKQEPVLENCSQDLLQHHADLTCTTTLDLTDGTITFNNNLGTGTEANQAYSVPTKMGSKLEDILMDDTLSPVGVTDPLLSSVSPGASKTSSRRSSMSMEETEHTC

CHO = assay: cytotoxicity in TLR9-MyD88 CHO cells, dose response, cytotoxicity control for TLR9-MyD88 binding inhibitor project, cell-based, luminescence (AID 588339); assay type: functional, hamster; conditions: Cricetulus griseus;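 note: CHO cells stably coexpressing TLR9 and MyD88 fusions from primary screen; compound exposure lasted 48 hours before viability readout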
HEK293 = assay: inhibitors of LMP1-driven NF-kB reporter, dose response, cell-based, HEK293, luciferase, cherry-pick (AID 588343); assay type: functional; conditions: Homo sapiens
[22] = target: Heat shock protein HSP 90-alpha (Homo sapiens, UniProt P07900); assay type: functional, organism-based
Vero [23] = assay: cells; assay type: functional, cell-based; conditions: Chlorocebus sabaeus
Vero [24] = assay: cells; assay type: functional; conditions: Chlorocebus sabaeus
A-375 = assay: A375 melanoma cell viability reduction, dose response, counter-screen for MITF modulator project, cherry-pick samples, set 2 (AID 540335); assay type: functional, cell-based; conditions: Homo sapiens

Chain of Latent membrane protein 1 (P03230 whole entry): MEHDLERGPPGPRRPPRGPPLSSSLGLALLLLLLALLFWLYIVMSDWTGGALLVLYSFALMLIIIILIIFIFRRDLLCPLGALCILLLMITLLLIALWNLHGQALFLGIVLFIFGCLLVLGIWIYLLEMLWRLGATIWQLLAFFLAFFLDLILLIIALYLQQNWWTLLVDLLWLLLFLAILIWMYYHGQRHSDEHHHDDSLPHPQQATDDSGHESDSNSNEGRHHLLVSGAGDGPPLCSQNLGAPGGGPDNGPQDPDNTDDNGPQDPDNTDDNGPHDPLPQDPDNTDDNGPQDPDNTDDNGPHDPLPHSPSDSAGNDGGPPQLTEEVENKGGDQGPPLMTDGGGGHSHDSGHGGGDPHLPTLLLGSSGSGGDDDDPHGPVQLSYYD
Chain of Voltage-gated inwardly rectifying potassium channel KCNH2 (Q12809 whole entry): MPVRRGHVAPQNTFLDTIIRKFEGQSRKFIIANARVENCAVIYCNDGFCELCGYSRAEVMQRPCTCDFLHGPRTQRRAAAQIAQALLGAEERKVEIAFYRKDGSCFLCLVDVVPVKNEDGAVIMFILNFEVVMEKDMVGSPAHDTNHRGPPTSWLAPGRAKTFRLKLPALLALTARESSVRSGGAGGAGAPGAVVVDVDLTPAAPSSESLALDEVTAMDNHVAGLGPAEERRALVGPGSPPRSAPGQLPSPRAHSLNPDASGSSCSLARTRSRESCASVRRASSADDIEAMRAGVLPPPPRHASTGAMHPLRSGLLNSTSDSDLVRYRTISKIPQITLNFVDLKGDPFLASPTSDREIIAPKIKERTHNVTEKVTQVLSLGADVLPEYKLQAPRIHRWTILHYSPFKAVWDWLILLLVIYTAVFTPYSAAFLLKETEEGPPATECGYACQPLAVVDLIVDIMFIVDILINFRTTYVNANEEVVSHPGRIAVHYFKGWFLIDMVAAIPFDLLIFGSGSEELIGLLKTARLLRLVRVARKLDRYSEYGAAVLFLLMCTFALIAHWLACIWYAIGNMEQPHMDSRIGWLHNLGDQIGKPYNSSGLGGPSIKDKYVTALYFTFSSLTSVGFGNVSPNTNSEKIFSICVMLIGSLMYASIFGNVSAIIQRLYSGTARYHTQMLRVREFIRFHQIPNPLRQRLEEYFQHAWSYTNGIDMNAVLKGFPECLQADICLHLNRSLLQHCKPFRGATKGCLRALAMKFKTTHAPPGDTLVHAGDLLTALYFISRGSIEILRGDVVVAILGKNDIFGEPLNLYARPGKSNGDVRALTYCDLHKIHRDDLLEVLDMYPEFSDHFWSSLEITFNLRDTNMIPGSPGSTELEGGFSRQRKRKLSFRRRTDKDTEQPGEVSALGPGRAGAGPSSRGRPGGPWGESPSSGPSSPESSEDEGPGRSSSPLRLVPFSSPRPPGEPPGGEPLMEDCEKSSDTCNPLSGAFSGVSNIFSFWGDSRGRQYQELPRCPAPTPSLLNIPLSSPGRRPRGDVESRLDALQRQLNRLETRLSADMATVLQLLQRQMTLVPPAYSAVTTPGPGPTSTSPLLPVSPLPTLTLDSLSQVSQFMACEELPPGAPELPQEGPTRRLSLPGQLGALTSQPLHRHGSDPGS
Chain of Nonstructural protein 1 (Q194T2 whole entry): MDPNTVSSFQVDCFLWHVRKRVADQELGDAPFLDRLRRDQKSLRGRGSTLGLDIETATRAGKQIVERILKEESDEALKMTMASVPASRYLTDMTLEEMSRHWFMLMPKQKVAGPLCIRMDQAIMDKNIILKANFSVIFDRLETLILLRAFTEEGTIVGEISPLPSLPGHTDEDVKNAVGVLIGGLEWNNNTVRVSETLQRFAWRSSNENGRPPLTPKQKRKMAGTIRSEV
Chain of Glucose-6-phosphate 1-dehydrogenase (P11413 whole entry): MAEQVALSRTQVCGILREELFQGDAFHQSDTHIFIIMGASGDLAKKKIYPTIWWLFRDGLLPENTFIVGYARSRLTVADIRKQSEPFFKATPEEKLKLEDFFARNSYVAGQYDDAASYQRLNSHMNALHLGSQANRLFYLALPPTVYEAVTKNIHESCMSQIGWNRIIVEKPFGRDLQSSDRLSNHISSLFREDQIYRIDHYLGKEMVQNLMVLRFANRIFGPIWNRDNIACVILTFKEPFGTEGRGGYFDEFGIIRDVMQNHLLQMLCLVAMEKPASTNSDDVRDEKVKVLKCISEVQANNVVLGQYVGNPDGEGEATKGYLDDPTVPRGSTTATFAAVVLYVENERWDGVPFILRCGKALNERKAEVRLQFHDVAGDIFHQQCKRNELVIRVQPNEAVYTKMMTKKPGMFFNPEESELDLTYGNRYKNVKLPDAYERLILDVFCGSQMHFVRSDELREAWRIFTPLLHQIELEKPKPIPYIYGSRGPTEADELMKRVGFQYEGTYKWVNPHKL
Chain of Glycogen synthase kinase-3 alpha (P49840 whole entry): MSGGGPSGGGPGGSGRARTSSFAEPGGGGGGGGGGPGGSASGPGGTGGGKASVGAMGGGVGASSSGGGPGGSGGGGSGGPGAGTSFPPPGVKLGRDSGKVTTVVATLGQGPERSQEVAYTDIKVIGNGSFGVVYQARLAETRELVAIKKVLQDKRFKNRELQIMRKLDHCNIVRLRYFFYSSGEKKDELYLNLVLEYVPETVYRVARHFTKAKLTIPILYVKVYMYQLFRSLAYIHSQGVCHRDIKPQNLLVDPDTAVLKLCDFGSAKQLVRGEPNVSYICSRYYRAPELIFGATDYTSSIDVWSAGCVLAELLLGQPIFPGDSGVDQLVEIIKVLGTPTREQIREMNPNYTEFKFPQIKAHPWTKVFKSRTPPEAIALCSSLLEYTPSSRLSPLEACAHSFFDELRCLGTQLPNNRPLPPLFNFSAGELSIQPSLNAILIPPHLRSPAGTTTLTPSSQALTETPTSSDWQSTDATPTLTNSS
Chain of Paired box protein Pax-8 (Q06710 whole entry, the tested form may be a part): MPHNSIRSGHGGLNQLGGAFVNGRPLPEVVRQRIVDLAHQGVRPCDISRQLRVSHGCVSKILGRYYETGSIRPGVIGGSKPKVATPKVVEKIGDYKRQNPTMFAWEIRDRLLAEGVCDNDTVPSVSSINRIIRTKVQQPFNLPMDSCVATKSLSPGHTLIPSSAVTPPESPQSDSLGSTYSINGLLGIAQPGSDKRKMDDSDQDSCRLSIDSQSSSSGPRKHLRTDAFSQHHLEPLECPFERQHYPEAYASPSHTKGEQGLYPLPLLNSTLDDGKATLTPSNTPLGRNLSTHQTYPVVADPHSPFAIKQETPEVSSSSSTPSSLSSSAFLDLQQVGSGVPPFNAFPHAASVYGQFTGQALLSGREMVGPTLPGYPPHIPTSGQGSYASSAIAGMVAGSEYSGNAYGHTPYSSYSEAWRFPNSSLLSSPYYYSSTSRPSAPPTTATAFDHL
Chain of Glycogen synthase kinase-3 beta (P49841 whole entry): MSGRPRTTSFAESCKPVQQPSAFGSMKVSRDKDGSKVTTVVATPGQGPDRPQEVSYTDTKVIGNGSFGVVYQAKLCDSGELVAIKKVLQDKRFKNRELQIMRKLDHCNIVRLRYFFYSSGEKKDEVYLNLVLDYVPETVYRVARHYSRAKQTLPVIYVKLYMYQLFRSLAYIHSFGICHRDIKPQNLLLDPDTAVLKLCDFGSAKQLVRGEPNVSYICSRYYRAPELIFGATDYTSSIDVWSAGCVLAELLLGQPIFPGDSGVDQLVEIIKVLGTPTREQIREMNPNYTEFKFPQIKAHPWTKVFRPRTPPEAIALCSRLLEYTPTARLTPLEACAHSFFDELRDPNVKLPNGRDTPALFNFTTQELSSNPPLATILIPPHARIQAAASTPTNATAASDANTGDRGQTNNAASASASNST
Chain of Cyclin-dependent kinase 5/CDK5 activator 1 (Q00535 whole entry): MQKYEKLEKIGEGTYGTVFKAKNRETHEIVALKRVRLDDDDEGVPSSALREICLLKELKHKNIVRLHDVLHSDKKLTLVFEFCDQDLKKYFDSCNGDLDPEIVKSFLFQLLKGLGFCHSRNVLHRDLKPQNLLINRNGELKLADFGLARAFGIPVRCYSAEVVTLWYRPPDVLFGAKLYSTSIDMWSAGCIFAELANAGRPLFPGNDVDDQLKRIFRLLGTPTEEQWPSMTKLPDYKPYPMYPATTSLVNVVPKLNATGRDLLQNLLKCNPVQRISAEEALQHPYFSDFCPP
Chain of Cyclin-dependent kinase 5/CDK5 activator 1 (Q15078 whole entry, further chain): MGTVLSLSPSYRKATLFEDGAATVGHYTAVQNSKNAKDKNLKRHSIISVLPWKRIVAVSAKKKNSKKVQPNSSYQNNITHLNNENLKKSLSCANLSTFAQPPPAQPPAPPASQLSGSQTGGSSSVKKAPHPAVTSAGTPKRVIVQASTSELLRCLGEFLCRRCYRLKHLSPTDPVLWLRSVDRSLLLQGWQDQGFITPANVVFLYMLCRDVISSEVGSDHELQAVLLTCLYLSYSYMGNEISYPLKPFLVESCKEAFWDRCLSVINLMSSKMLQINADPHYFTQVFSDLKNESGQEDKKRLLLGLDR
Chain of Beta-2 adrenergic receptor (P07550 whole entry): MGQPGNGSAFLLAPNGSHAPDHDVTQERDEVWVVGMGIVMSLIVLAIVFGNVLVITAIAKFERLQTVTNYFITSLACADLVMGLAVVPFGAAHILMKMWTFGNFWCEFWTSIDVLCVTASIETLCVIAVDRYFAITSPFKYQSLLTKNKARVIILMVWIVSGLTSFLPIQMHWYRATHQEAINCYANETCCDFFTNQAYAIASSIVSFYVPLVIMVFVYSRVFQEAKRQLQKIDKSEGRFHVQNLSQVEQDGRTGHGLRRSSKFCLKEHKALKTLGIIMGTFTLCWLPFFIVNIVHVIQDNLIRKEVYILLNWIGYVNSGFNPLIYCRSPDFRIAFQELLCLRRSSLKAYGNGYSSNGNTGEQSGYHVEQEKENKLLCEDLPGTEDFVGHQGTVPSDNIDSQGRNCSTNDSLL

SMILES: O/N=C/c1cn(-c2ccccc2)nc1-c1cccnc1
- AC50 [1]: 828 nM (active)
- AC50 [2]: 246 nM (active)

SMILES: ClC(Cl)=C(c1ccc(Cl)cc1)c1ccc(Cl)cc1 [DICHLORODIPHENYLDICHLOROETHYLENE]
- AC50 [3]: 15.8 µM (inconclusive) and 20 µM (inconclusive)

SMILES: OCCCNc1nccc(-c2cc(Nc3cccc(Cl)c3)ncn2)n1
- EC50 [4]: 2330 nM (active)
- EC50 [5]: 5300 nM (active)
- EC50 [6]: 3800 nM (active)
- EC50 [7]: 1860 nM (active)
- IC50 (Jurkat): 320 nM (active)
- AC50 [8]: 2960 nM (active)
- IC50 [9]: > 80000 nM (inactive)
- AC50 [10]: 535 nM (active)
- AC50 [11]: 2610 nM (active)
- AC50 [12]: 417 nM (active)
- AC50 [13]: 418 nM (active)
- AC50 [14]: < 260 nM (active)
- AC50 (Paired box protein Pax-8): 2700 nM (active)
- AC50 [15]: 1350 nM (active)
- AC50 [16]: 569 nM (active)
- AC50 [17]: 5080 nM (active)
- AC50 [18]: 2710 nM (active)

SMILES: Cc1cc(C)cc(C(=O)NC(CC(N)=O)c2ccc(N3CCN(c4ccccn4)CC3)c([N+](=O)[O-])c2)c1 (stereo unspecified)
- EC50 [19]: 714 nM (active)

SMILES: CC(=NNC(=S)N1CCN(c2ccccn2)CC1)c1nccs1
- IC50 [20]: > 80000 nM (inactive)
- IC50 (Nonstructural protein 1): 3380 nM (active)
- AC50 [21]: 681 nM (active)
- IC50 (CHO): 110 nM (active)
- AC50 (HEK293): 4440 nM (active)
- AC50 [22]: 2180 nM (active)
- AC50 [10]: 5180 nM (active)
- IC50 (Vero [23]): > 25000 nM (active)
- CC50 (Vero [24]): 8980 nM (active)
- AC50 (A-375): 34700 nM (active)
